Test results reported in patent publication US7419780B2, “Methods and assays for screening protein targets” (The Trustees of Columbia University in the City of New York, priority 2000, dated 2008).

Experiments:
Assay type in all cases: cell-based, S. cerevisiae
Conditions in all cases: 1 uM small molecule, difference to activity without small molecule, average of two trials
[1] = molecular target: T1, LexA rGR2 / B42 eDHFR (UniProt P06536+P0ABQ4, C656G/F620S); experiment: β-galactosidase activity assay, strain V505Y
T1 construct: rat Glucocorticoid Receptor (aa 524-795) with point mutations; expressed in transfected cells; host or cells: S. cerevisiae FY250
T1 sequence (P06536 524-795 F620S/C656G limits assumed): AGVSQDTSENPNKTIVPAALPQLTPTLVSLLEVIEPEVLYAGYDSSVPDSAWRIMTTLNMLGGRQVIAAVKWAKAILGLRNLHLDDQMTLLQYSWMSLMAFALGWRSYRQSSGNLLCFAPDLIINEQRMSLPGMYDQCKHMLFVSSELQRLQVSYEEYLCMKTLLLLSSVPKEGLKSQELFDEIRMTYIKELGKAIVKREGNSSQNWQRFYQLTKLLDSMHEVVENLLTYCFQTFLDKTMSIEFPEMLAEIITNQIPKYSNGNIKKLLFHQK
T1 sequence (P0ABQ4 1-159): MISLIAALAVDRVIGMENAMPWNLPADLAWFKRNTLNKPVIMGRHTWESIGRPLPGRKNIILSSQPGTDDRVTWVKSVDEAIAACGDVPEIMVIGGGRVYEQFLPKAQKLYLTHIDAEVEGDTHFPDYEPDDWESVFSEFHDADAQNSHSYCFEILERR
From the text: (§1) Table III explains the components of each strain. Each strain was constructed from the parent yeast strain FY250 and also contains the pMW106 plasmid, which has the LacZ reporter gene that is turned on only in when the LexA DNA binding domain and the B42 activation are brought in tot he vicinity of each other. We use several different strains because we use DHFR from two different species, mDHFR is from murine, while eDHFR is from E. coli. We are asl oable to switch the small moleculebinding domains. For example, the strain containing LexA-eDHFR with B42-rGH2 is a different strain and behaves differently from the strain containing LexA-rGR2 with B42-eDHFR. We also put in short 6 amino acid linkers between the two domains of our protein chimeras and thus these are different strain as well.
(§2) The results in Table IV are averages of two separate trials. Each strain was examined with small molecules and without small molecules. The absolute activity is given as the β-galactisidase activity […]. The average β-galactosidse activity for a strain without small molecule (i.e. the negative control) was about 100 β-galactosidase units.

[2] = molecular target: T2, LexA mDHFR / B42 gly6rGR2 (UniProt P00375+P06536, C656G/F620S); experiment: β-galactosidase activity assay, strain V496Y
T2 construct: rat Glucocorticoid Receptor (aa 524-795) with point mutations; expressed in transfected cells; host or cells: S. cerevisiae FY250
T2 sequence (P00375 1-187): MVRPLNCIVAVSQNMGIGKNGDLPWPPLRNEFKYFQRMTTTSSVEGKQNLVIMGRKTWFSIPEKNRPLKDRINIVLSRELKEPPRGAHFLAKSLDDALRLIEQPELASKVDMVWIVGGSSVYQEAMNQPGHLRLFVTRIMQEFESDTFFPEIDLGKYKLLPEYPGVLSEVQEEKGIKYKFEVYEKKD
T2 sequence (P06536 524-795 F620S/C656G limits assumed): T1 sequence (P06536 524-795 F620S/C656G limits assumed)
From the text: as §1, §2

[3] = molecular target: T3, LexA (GSG)2eDHFR / B42 (GSG)rGR2 (UniProt P06536+P0ABQ4, C656G/F620S); experiment: β-galactosidase activity assay, strain V501Y
T3 construct: rat Glucocorticoid Receptor (aa 524-795) with point mutations; expressed in transfected cells; host or cells: S. cerevisiae FY250
T3 sequence (P0ABQ4 1-159): T1 sequence (P0ABQ4 1-159)
T3 sequence (P06536 524-795 F620S/C656G limits assumed): T1 sequence (P06536 524-795 F620S/C656G limits assumed)
From the text: as §1, §2

[4] = molecular target: T4, LexA (GSG)2rGR2 / B42 (GSG)2eDHFR (UniProt P06536+P0ABQ4, C656G/F620S); experiment: β-galactosidase activity assay, strain V510Y
T4 construct: rat Glucocorticoid Receptor (aa 524-795) with point mutations; expressed in transfected cells; host or cells: S. cerevisiae FY250
T4 sequence (P06536 524-795 F620S/C656G limits assumed): T1 sequence (P06536 524-795 F620S/C656G limits assumed)
T4 sequence (P0ABQ4 1-159): T1 sequence (P0ABQ4 1-159)
From the text: as §1, §2

[5] = molecular target: T5, LexA (GSG)2rGR2 / B42 eDHFR (UniProt P06536+P0ABQ4, C656G/F620S); experiment: β-galactosidase activity assay, strain V506Y
T5 construct: expressed in transfected cells; host or cells: S. cerevisiae FY250 with pMW106 lacZ reporter
T5 sequence (P06536 524-795 F620S/C656G limits assumed): T1 sequence (P06536 524-795 F620S/C656G limits assumed)
T5 sequence (P0ABQ4 1-159): T1 sequence (P0ABQ4 1-159)
From the text: as §1, §2

[6] = molecular target: T6, LexA (GSG)2rGR2 / B42 (GSG)2mDHFR (UniProt P00375+P06536, C656G/F620S); experiment: β-galactosidase activity assay, strain V512Y
T6 construct: rat Glucocorticoid Receptor (aa 524-795) with point mutations; expressed in transfected cells; host or cells: S. cerevisiae FY250
T6 sequence (P06536 524-795 F620S/C656G limits assumed): T1 sequence (P06536 524-795 F620S/C656G limits assumed)
T6 sequence (P00375 1-187): T2 sequence (P00375 1-187)
From the text: as §1, §2

[7] = molecular target: T7, LexA (GSG)2mDHFR / B42 gly6rGR2 (UniProt P00375+P06536, C656G/F620S); experiment: β-galactosidase activity assay, strain V503Y
T7 construct: expressed in transfected cells; host or cells: S. cerevisiae FY250 with pMW106 lacZ reporter
T7 sequence (P00375 1-187): T2 sequence (P00375 1-187)
T7 sequence (P06536 524-795 F620S/C656G limits assumed): T1 sequence (P06536 524-795 F620S/C656G limits assumed)
From the text: as §1, §2

[8] = molecular target: T8, LexA eDHFR / B42 rGR2 (UniProt P06536+P0ABQ4, C656G/F620S); experiment: β-galactosidase activity assay, strain V493Y
T8 construct: rat Glucocorticoid Receptor (aa 524-795) with point mutations; expressed in transfected cells; host or cells: S. cerevisiae FY250
T8 sequence (P0ABQ4 1-159): T1 sequence (P0ABQ4 1-159)
T8 sequence (P06536 524-795 F620S/C656G limits assumed): T1 sequence (P06536 524-795 F620S/C656G limits assumed)
From the text: as §1, §2

[9] = molecular target: T9, LexA (GSG)2rGR2 / B42 mDHFR (UniProt P00375+P06536, C656G/F620S); experiment: β-galactosidase activity assay, strain V508Y
T9 construct: expressed in transfected cells; host or cells: S. cerevisiae FY250 with pMW106 lacZ reporter
T9 sequence (P06536 524-795 F620S/C656G limits assumed): T1 sequence (P06536 524-795 F620S/C656G limits assumed)
T9 sequence (P00375 1-187): T2 sequence (P00375 1-187)
From the text: as §1, §2

[10] = molecular target: T10, LexA (GSG)2mDHFR / B42 rGR2 (UniProt P00375+P06536, C656G/F620S); experiment: β-galactosidase activity assay, strain V502Y
T10 construct: rat Glucocorticoid Receptor (aa 524-795) with point mutations; expressed in transfected cells; host or cells: S. cerevisiae FY250
T10 sequence (P00375 1-187): T2 sequence (P00375 1-187)
T10 sequence (P06536 524-795 F620S/C656G limits assumed): T1 sequence (P06536 524-795 F620S/C656G limits assumed)
From the text: as §1, §2

## C[C@@H]1C[C@H]2C3CCC4=CC(=O)C=C[C@]4(C)[C@@]3(F)[C@@H](O)C[C@]2(C)[C@@]1(O)C(=O)NCCSCCCCCCCCCCSCC[C@H](NC(=O)c1ccc(N(C)Cc2cnc3nc(N)nc(N)c3n2)cc1)C(=O)O (stereo partly shown) [D10M]
[1]
  B-gal activity: 1160 β-galactosidase units
[2]
  B-gal activity: 740 β-galactosidase units
[3]
  B-gal activity: 2286 β-galactosidase units
[4]
  B-gal activity: 2314 β-galactosidase units
[5]
  B-gal activity: 2561 β-galactosidase units
[6]
  B-gal activity: 6 β-galactosidase units
[7]
  B-gal activity: 1132 β-galactosidase units
[8]
  B-gal activity: 5812 β-galactosidase units
[9]
  B-gal activity: 5 β-galactosidase units
[10]
  B-gal activity: 497 β-galactosidase units
